Patent US20240228497A1, “Pyrrolo[2, 3-b]Pyrazine-Based Bifunctional Compounds as HPK1 Degraders and the Use Thereof” (BeiGene, Ltd., priority 2021, published 2024)

What was measured:
[1] = molecular target: T1, HPK1 kinase (aa1-346, Life Technologies) (Homo sapiens, UniProt Q92918); assay: HPK Kinase Activity Assay at 1 mM ATP (TR-FRET); type: biochemical; conditions: HPK1 kinase 40 nM, 0.5 μM STK1 substrate, 60 min preincubation, read-out: Enzymatic activity IC50
T1 construct: HPK1 kinase (aa1-346, Life Technologies); purchased Life Technologies
T1 sequence (Q92918 1-346): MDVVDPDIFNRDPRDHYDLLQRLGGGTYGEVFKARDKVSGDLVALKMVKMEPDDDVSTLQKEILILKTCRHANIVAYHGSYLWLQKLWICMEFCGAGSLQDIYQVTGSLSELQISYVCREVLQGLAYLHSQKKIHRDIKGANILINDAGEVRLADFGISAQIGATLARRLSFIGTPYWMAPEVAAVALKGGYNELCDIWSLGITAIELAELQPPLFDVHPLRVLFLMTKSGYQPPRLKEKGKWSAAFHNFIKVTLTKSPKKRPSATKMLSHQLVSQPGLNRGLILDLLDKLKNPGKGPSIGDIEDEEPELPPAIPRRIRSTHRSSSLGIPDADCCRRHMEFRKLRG
Description: HPK Kinase Activity Assay at 1 mM ATP
Compounds disclosed herein were tested for inhibition of HPK1 kinase (aa1-346, Life Technologies) activity in assays based on the time-resolved fluorescence-resonance energy transfer (TR-FRET) methodology. The assays were carried out in 384-well low volume black plates in a reaction mixture containing HPK1 kinase (40 nM), 1 mM ATP, 0.5 μM STK1 substrate and 0-10 μM compound in buffer containing 50 mM HEPES, 0.01% BSA, 0.1 mM Orthovanadate, 10 mM MgCl2, 1 mM DTT, pH=7.0, 0.005% Tween-20. The kinase was incubated with the compounds disclosed herein or DMSO for 60 minutes at room temperature and the reaction was initiated by the addition of ATP and STK1 substrate. After reaction at room temperature for 120 minutes, an equal volume of stop/detection solution was added according to the manufacture's instruction (CisBio). The stop/detection solution contained STK Antibody—Cryptate and XL665-conjugated streptavidin in Detection Buffer. The TR-FRET signals (ratio of fluorescence emission at 665 nm over emission at 620 nm with excitation at 337 nm wavelength) were recorded on a PHERAstar FS plate reader (BMG Labtech). Phosphorylation of STK1 substrate led to the binding of STK Antibody—Cryptate to the biotinylated STK1 substrate, which places fluorescent donor (Eu^3+ crypate) in close proximity to the accepter (Streptavidin-XL665), thus resulting in a high degree of fluorescence resonance energy transfer. The inhibition of HPK1 in presence of increasing concentrations of compounds was calculated based on the ratio of fluorescence at 665 nm to that at 620 nm. IC50 determination was performed by fitting the curve of percent inhibition versus the log of the inhibitor concentration using Dotmatics.

[2] = tested on: pSLP76 (S376) level in Jurkat cell line; assay: Cellular pSLP76(S376) HTRF Assay in Jurkat cells; type: cell-based; conditions: 2 h compound treatment, stimulated with 0.05 μg/mL anti-human CD3 (OKT3) for 30 min
Description: Cellular pSLP76(S376) HTRF Assay
Jurkat cell line was used in this study. Cells were maintained in RPMI 1640 supplemented with heat-inactivated 10% fetal bovine serum (Thermo Fisher), 50 units/mL penicillin and streptomycin (Thermo Fisher) and kept at 37° C. in a humidified atmosphere of 5% CO2 in air. Cells were reinstated from frozen stocks that were laid down within 30 passages from the original cells purchased. After cell starvation in the assay buffer (RPMI 1640 supplemented with heat-inactivated 0.1% fetal bovine serum) for 18 hours, cells were seeded into a round bottom 96-well plate at 150,000 cells per well density. Cells were treated with a 9-point dilution series of test compounds. The final compound concentration is from 0 to 2 μM. After 2 h compound treatment, cells were stimulated with 0.05 μg/mL anti-human CD3 (OKT3, Bioxcell) for 30 min at 37° C. Then the cells were lysed, and the pSLP76 (S376) level in the cell lysates was detected by HTRF kit (Cisbio). A total of 16 μL of cell lysate from each well of a 96-well plate was transferred to a 384-well small volume white assay plate. Lysate from each well was incubated with 2 μL of Eu^3+-cryptate (donor) labeled anti-phospho-SLP76 and 2 μL of D2 (acceptor) labeled anti-phospho-SLP76 antibodies (Cisbio) overnight in dark at room temperature. FRET signals (655 nm) were measured using a PHERAstar FSX reader (BMG Labtech). IC50 determination was performed by fitting the curve of percent inhibition versus the log of the inhibitor concentration using Dotmatics.

[3] = molecular target: T2, HPK1 protein (Homo sapiens, UniProt Q92918); assay: HPK1 Protein Degradation Assay in Human PBMC (Western Blot); type: cell-based; conditions: 24 h compound incubation
T2 construct: host or cells: human PBMC (CD4+ and CD8+ T cells gated in the FACS assay)
Description: HPK1 Protein Degradation Assay in Human PBMC (Western Blot)
Human PBMCs (AllCells) was used in this study. Cells were thawed one day in advance and maintained in RPMI-1640 supplemented 10% fetal bovine serum (Thermo Fisher), 50 units/mL penicillin and streptomycin (Thermo Fisher) and the mixture was kept at 37° C. in a humidified atmosphere air containing 5% CO2. 3×10^6 PBMCs per well in 1 mL culture medium were seeded in the 12-well plate, and the cells were treated with an appropriate dilution series of compounds with a final concentration up to […]. After 24 h of compound incubation, the medium was aspirated, the cells were washed with PBS, and then 30 μL of 1X protein lysis buffer (Cell Signaling Technology) containing protease inhibitors (Merck) and phosphatase inhibitors (Sigma) was added. The cells were lysed. After centrifugation, the supernatants were quantified by BCA protein assay kit (Thermo Fisher). 4X loading Buffer (Thermo Fisher) was added to equal amounts of total protein from each sample and heated at 95° C. for 5 minutes. 30-50 μg of cell lysate was loaded onto a 4%-12% NuPAGE Bis-Tris Gel (Thermo Fisher) and electro-transferred to NC membranes (Thermo Fisher). The membranes were blocked for least 1 hour with blocking reagent (LI-COR), and then incubated overnight with anti-HPK1 (Cell Signaling Technology, 4472S) antibodies and as loading control anti-ß-actin (Cell Signaling Technology, 3700S) or anti-GAPDH (Cell Signaling Technology, 97166S) at 4° C. with gentle shaking. The membranes were washed three times with TBST, and incubated at least 1 hour at room temperature with anti-mouse or anti-rabbit secondary fluorescent antibody (Thermo Fisher, A32729; LI—COR, 926-32213). Then the membranes were washed three times in TBST, and one time in water. Immunoreactive bands were visualized by Odyssey CLx and analyzed by GraphPad Prism 8.

T2 sequence (Q92918 whole entry): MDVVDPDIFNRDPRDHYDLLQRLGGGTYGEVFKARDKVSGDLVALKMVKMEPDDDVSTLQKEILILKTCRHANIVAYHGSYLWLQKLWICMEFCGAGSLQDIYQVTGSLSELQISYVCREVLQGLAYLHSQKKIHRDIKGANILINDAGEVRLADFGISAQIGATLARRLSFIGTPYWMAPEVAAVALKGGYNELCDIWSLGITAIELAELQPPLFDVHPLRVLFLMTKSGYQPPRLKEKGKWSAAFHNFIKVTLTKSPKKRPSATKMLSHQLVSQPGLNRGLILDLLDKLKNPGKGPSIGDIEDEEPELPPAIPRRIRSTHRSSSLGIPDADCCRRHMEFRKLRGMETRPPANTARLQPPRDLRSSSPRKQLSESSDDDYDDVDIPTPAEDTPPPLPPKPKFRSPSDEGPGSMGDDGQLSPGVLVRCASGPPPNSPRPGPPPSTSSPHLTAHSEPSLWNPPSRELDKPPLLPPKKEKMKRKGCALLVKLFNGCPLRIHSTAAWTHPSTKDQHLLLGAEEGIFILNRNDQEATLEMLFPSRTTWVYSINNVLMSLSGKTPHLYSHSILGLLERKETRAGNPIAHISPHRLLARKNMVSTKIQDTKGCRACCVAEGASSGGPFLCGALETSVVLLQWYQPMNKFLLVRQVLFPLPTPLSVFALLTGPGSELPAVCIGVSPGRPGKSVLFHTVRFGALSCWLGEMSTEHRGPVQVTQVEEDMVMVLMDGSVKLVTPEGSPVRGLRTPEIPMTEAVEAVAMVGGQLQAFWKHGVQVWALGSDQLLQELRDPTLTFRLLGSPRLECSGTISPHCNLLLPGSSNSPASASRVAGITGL

| IC50 [1] | IC50 [2] | DC50 [3] | Dmax [3] | Protein degradation DC90 [3] | Structure (SMILES) |
| --- | --- | --- | --- | --- | --- |
| 0.253 µM | 0.515 µM | 0.087 µM | 91% | 0.294 µM | Cc1cc(-c2c[nH]c3ncc(-c4cc(C)c5c(c4)CCN(CCC(=O)NCC4CCN(c6ccc(C7CCC(=O)NC7=O)cc6)CC4)C5)nc23)ccc1C(=O)N(C)C (stereo not drawn) [Example 2, 4-(2-(2-(3-(((1-(4-(2,6-dioxopiperidin-3-yl)phenyl)piperidin-4-yl)methyl)amino)-3-oxopropyl)-8-methyl-1,2,3,4-tetrahydroisoquinolin-6-yl)-5H-pyrrolo[2,3-b]pyrazin-7-yl)-N,N,2-trimethylbenzamide] |
| 0.061 µM | 0.193 µM | 0.023 µM | 97% | 0.215 µM | Cc1cc(-c2c[nH]c3ncc(-c4cc(C)c5c(c4)CCN(CCC(=O)N4CCN(c6ccc(N7CCC(=O)NC7=O)cc6)CC4)C5)nc23)ccc1C(=O)N(C)C [Example 3, 4-(2-(2-(3-(4-(4-(2,4-dioxotetrahydropyrimidin-1(2H)-yl)phenyl)piperazin-1-yl)-3-oxopropyl)-8-methyl-1,2,3,4-tetrahydroisoquinolin-6-yl)-5H-pyrrolo[2,3-b]pyrazin-7-yl)-N,N,2-trimethylbenzamide] |
| 0.14 µM | 0.459 µM | 0.059 µM | 95% | 0.817 µM | Cc1cc(-c2c[nH]c3ncc(-c4cc(C)c5c(c4)CCN(CCC(=O)NC4CCN(c6ccc(N7CCC(=O)NC7=O)cc6)CC4)C5)nc23)ccc1C(=O)N(C)C [Example 4, 4-(2-(2-(3-((1-(4-(2,4-dioxotetrahydropyrimidin-1(2H)-yl)phenyl)piperidin-4-yl)amino)-3-oxopropyl)-8-methyl-1,2,3,4-tetrahydroisoquinolin-6-yl)-5H-pyrrolo[2,3-b]pyrazin-7-yl)-N,N,2-trimethylbenzamide] |
